Columns and labels:
Type in all cases: cell-based
[1] = tested on: Streptococcus pneumoniae
Experimental: The peptides were examined for antibacterial efficacy against Staphylococcus aureus. To test the efficacy of peptides, dilutions of test peptides or PBS (for use as a control) were prepared in LB broth, and 100 μl aliquots of these placed in 96-well plates. A vial of planktonic bacterial stock was thawed in a 37° C. incubator and diluted to the level previously determined which would produce log phase growth after overnight incubation (see above). 25 μl of this bacterial dilution was then added to the test wells (some wells containing LB broth without peptide were left without any bacterial inoculation, these being used as a blank). After overnight growth, the concentration of bacteria in individual wells was assessed by measuring absorbance at 620 nm, in a microplate spectrophotometer. The average absorbance of wells for specific concentrations of peptides was calculated, and from this the percentage inhibition (relative to untreated wells) was also calculated and plotted against concentration (along with an estimate of error on that % inhibition). […] The inventor constructed an expanded library of peptides derived from either apolipoprotein B or apolipoprotein E in order to further evaluate polypeptides in accordance with the invention. Further experiments were then conducted to investigate the antibacterial activity of this peptide library against the bacteria P. aeroginosa, S. aureus and S. pneumoniae. The methods used to determine the IC50 values for each peptide were as described in the Example 1.

[2] = tested on: Saccharomyces cerevisiae yeast cells (strain GenT01); experiment: Gentronix GreenScreen GC yeast genotoxicity assay; settings: concentrations up to and including 100 μM, FIGS. 6A-6C
Experimental: A liquid handling robot is used to produce a serial dilution series of each test compound in a 96-well, black microplate with an optically clear base. […] In addition, a series of genotoxic and cytotoxic standards and non-toxic controls are run to provide internal quality control. The plates are covered with a breathable membrane and incubated overnight, without shaking, at 25° C.
After incubation, the microplates are uncovered and data collected using a Tecan Ultra 384 microplate reader. This instrument provides measurements of light absorbance and fluorescence in microplates; a standard fluorescein filter set (excitation 485/25 and emission 535/25) is used. Absorbance is read at 620 nm and is proportional to cell proliferation (which is lowered by toxic analytes). Fluorescence is proportional to the activity of the DNA repair system (increased by genotoxic analytes). The yeast cultures used are a genetically modified strain that express a green fluorescent protein whenever the cells carry out DNA damage repair. Fluorescence is normalised to the absorbance signal to correct for variation in cell yield caused by any cytolytic activity of the test compounds against the yeast cells. This produces a “fluorescence per cell” measurement termed “brightness”. In addition to the Gentronix Assay yeast strain (GenT01), a control Saccharomyces cerevisiae strain (GenC01) is also used, which is identical except for its ability to produce green fluorescent protein is disabled. This strain is used to provide a control to allow correction for substances which may be either autofluorescent themselves or which induce an autofluorescence in the yeast cells. The data collected is simply transferred into a Excel template where result evaluation sheets are automatically produced. The sheets contain the processed results in both a graphical and tabulated format, with automatic assessment of the result, i.e. positive or negative, and calculation of the lowest effective concentration (LEC), for both genotoxicity and cytotoxicity. […]

[3] = tested on: Pseudomonas aeruginosa
Experimental: To test the effect of treatment of the polypeptides according to the invention by autoclaving, a 400 μM stock solution of GIN1p was prepared in PBS, and 420 μl aliquots were placed in four Eppendorf tubes (with screw lids). After securing the lids, two of the tubes were loaded into a metal rack held within a Pyrex beaker, and placed into a Prestige Medical Clinical Autoclave. The remaining two tubes were left untreated, as a control. The autoclave was then activated, and underwent two autoclave cycles, each of which involved exposure of the peptide solutions to 126° C. for 11 min. Finally, efficacy of the two autoclaved and the two control peptide samples against P. aeruginosa was tested as previously described.
Referring to FIG. 7, there is shown the level of growth of Pseudomonas aeruginosa after exposure of a bacterial inoculum to various concentrations of GIN 1p (a polypeptide in accordance with the present invention) which had been either autoclaved or without autoclaving, expressed as a % of growth for untreated bacteria. Accordingly, polypeptides according to the invention are therefore suitable for use with products, which would normally be sterilised by autoclaving during the manufacturing procedure.

[4] = tested on: Pseudomonas aeruginosa; experiment: Antibacterial efficacy on peptide pre-treated contact lenses; settings: lens pre-treated with 250 μM peptide for 2 hours
Experimental: Referring to FIG. 2, there is shown a bar graph illustrating growth of Pseudomonas aeruginosa overnight on Johnson and Johnson Acuvue contact lenses following pre-treatment with polypeptide GIN 1p, or a control treatment. Growth was measured by examination by light microscopy, and by assessing metabolic activity of any bacteria present using MTT reduction. The data illustrates the efficacy of the antibacterial nature of the peptides according to the invention when applied to contact lenses. Antibacterial activity was assessed by measuring MTT reduction.
Lenses were placed in 24-well plates before treatment with 75 μl of 250 μM GIN-1p in PBS (pH7.4) or with 75 μl of PBS and incubated for 2 hours at […], before removal of these solutions from the lens by aspiration. A further 1 ml of PBS was then added to the wells to wash away any loosely attached peptide, before aspiration of this wash solution. […]
The plates were returned to the incubator at 37° C. overnight. […] The degree of formazan production was assessed by measuring absorbance at 540 nm for aliquots of these solutions; these values are shown in FIG. 2, and represent the average for four lenses, with the bars showing standard deviation. […]

Substance: Ac-LRKLRKRLLLRKLRKRLL-NH2 [MU_10]
- IC50 [1]: 45 µM
- Genotoxic response in test yeast strain (GenT01) [2]: failed to produce any genotoxic response
- IC50 [3]: ~2000 nM
- Appearance of solution containing pre-treated contact lens after overnight incubation ([4]; 10^4 challenge organisms, FIG. 3): colourless
- Bacterial growth on contact lens surface by light micrograph after overnight incubation ([4]; FIG. 4): minimal bacterial growth
